A melting point compilation (Tetko et al.; mined from patent text by program, amines drawn as free bases though some values may be those of a salt)

| Structure (SMILES) | melting point [°C] |
| --- | --- |
| COc1ccc(-c2cc(=Nc3c(C)cc(C)cc3C)n(C)c(N3CCNCC3)n2)cc1OC | 185 to 189 |
| CCOc1nn(-c2ccccn2)cc1CCCOc1ccc(CCC(=O)O)cc1OC | 92 to 93 |
| Cc1c(-c2ccc(O)c(F)c2)sc(C=O)c1-c1ccc(O)cc1 | 227 to 229 |
| NC(=O)Nc1ccc(/C=C/C(=O)O)cc1 | > 350 |
| O=c1[nH]c2ccccc2c2nc(-c3ccccc3)cn12 | 278 to 280 |
| Cc1cc(-c2nc3ccc(CN4CCOCC4)cc3c(=O)[nH]2)ccn1 | 267 to 268 |
| CCCC(=O)c1cc2c(s1)CCC1CC(=O)N(c3ccc(Cl)cc3)N=C21 (configuration not stated) | 157 to 159 |
| COC(=O)C(Cc1ccc(OCCc2nc(-c3ccccc3)oc2C)cc1)C(=O)NC(C)=O (configuration not stated) | 126 to 128 |
| CCOC(=O)Nc1cccc(C(=O)C=CN(C)C)c1 | 121 to 122 |
| c1ccc(-c2cc3cccc(CSCCN4CCCCC4)c3o2)cc1 | 64.5 to 65.5 |
| CC(=O)OC1CSC(Oc2cc(-c3cccnc3)ccc2Cl)C(OC(C)=O)C1OC(C)=O (configuration not stated) | 155 |
| Nc1ccc(C2=NNC(=O)Cc3cc4c(cc32)OCO4)cc1Cl | 256 to 258 |
| CCC(C#N)CCn1nc(C(N)=O)c2ccccc21 (configuration not stated) | 178 to 180 |
| c1ccc(-c2nn(CCCCCCCCc3nn[nH]n3)c(-c3ccccc3)c2-c2ccccc2)cc1 | 158 to 160 |
| ClCc1ccc(-c2ccccc2)nc1 | 95 to 96 |
| CN(C)N=C1CCC2C3CCc4cc(O[Si](C)(C)C(C)(C)C)ccc4C3CCC12C (configuration not stated) | 100 to 103 |
| COc1ccc(F)c2c1CCC(C=O)C2=O (configuration not stated) | 66 to 68 |
| Nc1cc2c(cc1CCN1CCN(c3cccc(C(F)(F)F)c3)CC1)OCO2 | 88 |
| CC(NC(=O)CCl)(c1ccccc1)c1ccccc1 | 73 to 74 |
| COc1cc(O)c2c(=O)c(OC)c(-c3ccc(N)cc3)oc2c1 | 221 |
| CNC(=O)CC1CSc2c(C(=O)OC(C)C)c(C)cn21 (configuration not stated) | 108 to 109 |

| Structure (SMILES) | melting point [°C] |
| --- | --- |
| Nc1nc(-c2ccco2)c(N2CCOCC2)s1 | 285 to 288 |
| CC(=O)N1CCC(Oc2ccc(C(F)(F)F)cc2)(c2ccccc2)CC1 | 96 to 100 |
| O=c1ccoc2c(CCCc3ccccc3)c(OCc3ccccc3)ccc12 | 106 to 108 |
| OC(CNc1ccnc2ccccc12)c1ccccc1 (configuration not stated) | 289 to 290 |
| COC(=O)Cc1ccc2nc(C(F)(F)F)cc(O)c2c1 | 192 to 193 |
| CC(C)N(C(=O)Cl)c1ccccc1 | 89 to 90 |
| CCNC(=O)Nc1cn2ccc(-c3c(C)noc3C)cc2n1 | 204 to 206 |
| O=C(CN1CC=CCC1)NC(=O)N1CCN2C(=O)OC(c3ccccc3)(c3ccccc3)C2C1 (configuration not stated) | 156 to 157 |
| CC(=O)N(c1cc(N)c(F)cc1Cl)S(=O)(=O)CCl | 176 to 180 |
| COc1ccc(C(=O)Nc2ccccc2C(=O)NCCCC(=O)O)cc1 | 172 to 174 |
| COC(=O)C(Oc1nc(OC)cc(OC)n1)C(OC)(c1ccccc1)c1ccccc1 (configuration not stated) | 81 |
| CCOC(=O)c1cccc(C)c1S(N)(=O)=O | 93 to 94 |
| Cc1cccc2c1-c1ccccc1C2CO (configuration not stated) | 120 to 122 |
| COCc1c(C(O)c2ccccc2)ncc2[nH]c3ccc(OCc4ccccc4)cc3c12 (configuration not stated) | 190 to 191 |
| CSC(=O)C(C#N)C(=O)Nc1ccc(C(F)(F)F)cc1 (configuration not stated) | 196 to 198 |
| COc1cc(C(=O)C(C)C)ccc1O | 86 to 87 |
| CC(=NOCC(N)=O)c1ccc(Cl)cc1 | 103 to 104 |
| O=C(O)c1cnn(-c2cccc(Cl)c2)c1Cl | 209 to 211 |
| O=C(OI(OC(=O)C(F)(F)F)C(F)(F)C(F)(F)C(F)(F)C(F)(F)C(F)(F)C(F)(F)C(F)(F)F)C(F)(F)F | 68 to 70 |
| Cc1ncc2n1-c1ccc(Cl)cc1C(c1ccccc1F)N(N=O)C2 (configuration not stated) | 139 to 145 |
| CC(=O)C=Cc1ccc(C#N)cc1 | 103 to 106 |
